# Assay results taken from patent US20120220554A1, “Combretastatins for Prevention of Posterior Capsule Opacification” (OXIGENE, INC., priority 2010, published 2012).
# Legend:
# [1] = tested on: polymerized tubulin in primary bovine lens epithelial cells; assay: Anti-tubulin immunofluorescence of primary lens epithelial cells on the lens capsule; format: cell-based; details: single 30 min treatment with 1 μM CA4P, at 30 min after start and up to 48 h after end of exposure (FIG. 5)
# Description: Bovine eyes were obtained from Coast and County Meat Group (Felling, UK) on the day of culling and lenses were dissected out of the eyes under a sterile tissue culture hood as described below. After generous dousing in 70% ethanol, eyes were cut open using a major surgical blade (Swann-Morton, UK) via a single cut, parallel and posterior to the cornea-conjunctiva limit. The eye was then inverted and the vitreous removed. The lens was freed from the ciliary fibers and immediately placed anterior face down in a SYLGARD-covered (Dow Corning, Germany) well of a 12-well tissue culture plate (Greiner Bio-One, UK). The posterior side of the lens capsule was cut in a Y-shape fashion by a thin scalpel and the resulting flaps pulled back and pinned onto the SYLGARD. The fiber mass was removed by gently rolling it off the anterior lens capsule, thus leaving most of the primary lens epithelial cell layer attached onto the anterior lens capsule. This primary lens epithelial cell layer was then cultured on its original lens capsule at 37° C., 5% CO2, in 0% FCS-supplemented tissue culture.
# […] Immediately after the end of the CA4P exposure and 48 h after the end of the CA4P exposure, the presence of polymerized tubulin in the primary lens epithelial cell layers was investigated by immunofluorescence. […]
# phospho-Erk in BIE cells = assay: Erk phosphorylation immunoblot in BIE cells; format: cell-based, bovine
# Protocol: (§1) Phospho-Erk ½ levels were elevated immediately after the end of CA4P exposure in both control and treated cells and decreased 1 h after the end of CA4P exposure in both control and treated cells (FIG. 7). […] Therefore, it could be hypothesized that, in primary cells, a general stress response due to dissection will mask CA4P's effect on Erk phosphorylation. Phosphorylated p38 and JNK levels were not affected by CA4P treatment (data not shown).
# [2] = tested on: polymerized tubulin in BMI-immortalized bovine lens epithelial (BIE) cells; assay: Dimer/polymer tubulin extraction and anti-tubulin western blot in BIE cells; format: cell-based; details: single 30 min treatment with 1 μM CA4P, at 30 min after start and up to 24 h after end of exposure (FIG. 4)
# Protocol: BMI-immortalized bovine lens epithelial (BIE) cells, on plastic, and primary bovine lens epithelial cells, on their original in vivo basement membrane, (the eye lens capsule), were cultured in 10% fetal calf serum (FCS)-supplemented medium at 37° C. prior to 30 min exposure to 1 μM CA4P, after which they were returned to 10% FCS-supplemented medium. The relatively short exposure was chosen to approximate the duration of a cataract surgery procedure. At a range of time points following exposure, cells were subjected to cell viability assay (MTT-based assay, PROMEGA, UK), immunoblotting or immunofluorescence.
# BMI-immortalized bovine lens epithelial cells (BIE cell line, produced in Roy Quinlan's Laboratory, University of Durham, UK), were grown at 37° C., 5% CO2, in 10 cm diameter Petri dishes in 10% fetal calf serum (FCS)-supplemented tissue culture medium (Sigma-Aldrich, UK). When nearing confluence, they were exposed to 1 μM combretastatin A 4-phosphate (CA4P) (OXiGENE, UK) diluted in 10% FCS-supplemented medium for 30 min, after which the cells were returned to 10% FCS-supplemented medium. Immediately after the end of CA4P exposure, cells were extracted to assess the proportion of dimer/polymer tubulin, as described in Lieuvin et al., 1994 (J. Cell Biology 124 (6):985-996). […]
# The proportion of dimer/polymer tubulin was assessed by western blotting. […]
# Phosphorylated p38 = Phosphorylated p38 level; format: cell-based, bovine; details: CA4P treatment (data not shown)
# Protocol: as §1
smiles,measurement,setting,value
"COc1ccc(/C=C\c2cc(OC)c(OC)c(OC)c2)cc1OP(=O)(O)O [CA4P, combretastatin A-4 phosphate]",polymerized tubulin (immunofluorescence),[1],loss of polymerized tubulin
same,phospho-Erk levels,phospho-Erk in BIE cells; 1 h after the end of CA4P exposure,returned to control levels
same,phospho-Erk levels,phospho-Erk in BIE cells; immediately after the end of CA4P exposure,elevated
same,polymerized tubulin (western blot),[2],loss of polymerized tubulin
same,Phosphorylated p38 levels,Phosphorylated p38,not affected
